Patent US20100120732A1, “AGENT FOR PREVENTION AND/OR TREATMENT OF SYSTEMIC LUPUS ERYTHEMATOSUS” (KOWA CO., LTD., priority 2007, published 2010)

Key:
BAFF mRNA in the kidney = experiment: BAFF mRNA expression in the kidney of SLE model mice (Real-Time RT-PCR); type: in vivo, NZB/WF1 mice; details: Drug A 30 mg/kg twice a day, Drug B 3 mg/kg once a day, oral, 10 weeks; for BAFF Relative index: kidney mRNA relative to control group = 1.000; for BAFF mRNA expression level (%): kidney, female NZB/WF1 mice, control = 100%, mean ± standard error of 10 to 11 mice
Method: (§1) Actions of suppressing the expression of disease-associated genes in the kidney by the administration of 2-benzyl-5-(4-chlorophenyl)-6-[4-(methylthio)phenyl]-2H-pyridazine-3-one (hereinafter referred to as Drug A) and prednisolone (hereinafter referred to as Drug B) in combination and the administration of each drug alone were evaluated by using NZB×NZW (NZB/W)F1 mice widely known as spontaneous SLE models.
(§2) Female NZB/WF1 mice (Japan SLC, Inc.) were used as test animals.
(§3) The bodyweight of 20-week-old NZB/WF1 mice was measured. By using the body weight as an index, the mice were divided into groups through one-parameter-based block randomization so that each group becomes uniform.
(§4) Drug administration was conducted from the day after the grouping to 10 weeks thereafter. To a group for sole administration of Drug A, a dose of 30 mg/kg was orally administered, twice a day, in the morning (9:00 to 11:00) and in the evening (15:30 to 17:30). Further, to a group for sole administration of Drug B, a dose of 3 mg/kg was orally administered, once a day, in the daytime (11:30 to 13:30). On the other hand, to a group for combined administration of Drug A and Drug B, 30 mg/kg of Drug A was orally administered in the morning (9:00 to 11:00) and in the evening (15:30 to 17:30), and 3 mg/kg of Drug B was orally administered in the daytime (11:30 to 13:30).
(§5) 10 weeks after the grouping (at the time of 30 weeks old), the kidney was excised from each individual and horizontally divided into two portions. After that, the kidney was subjected to RNase inactivation treatment that involves immersing the kidney in RNAlater (manufactured by QIAGEN GmbH) at 4° C. for 24 hours. […] The mRNA expression levels of SLE-associated genes (IFN-y (probe No.: Mm00801778_m1), TNF-α (probe No.: Mm00443258_m1), IL-1β (probe No.: Mm00434228_m1), BAFF (probe No.: Mm00446347_m1), IFIT1 (probe No.: Mm00515153_m1), and IP-10 (probe No.: Mm00445235_m1)) were determined by using ABI PRISM (registered trademark) 7900 Sequence Detection System (manufactured by Applied Biosystems, Inc.) and TaqMan (registered trademark) Gene Expression Assays (manufactured by Applied Biosystems, Inc.) by Real-Time RT-PCR method. […]
(§6) Tables 1 to 6 and FIGS. 1 to 6 each show the mRNA expression levels of IFN-γ (Table 1, FIG. 1), TNF-α (Table 2, FIG. 2), IL-1β (Table 3, FIG. 3), BAFF (Table 4, FIG. 4), IFIT1 (Table 5, FIG. 5), and IP-10 (Table 6, FIG. 6) in the kidney in a control group, a group for sole administration of 30 mg/kg of Drug A, a group for sole administration of 3 mg/kg of Drug B, and a group for combined administration of both Drugs. […] The mRNA expression level is expressed as mean±standard error of 10 to 11 mice in each group. […]

IP-10 mRNA in the kidney = experiment: IP-10 mRNA expression in the kidney of SLE model mice (Real-Time RT-PCR); type: in vivo, NZB/WF1 mice; details: Drug A 30 mg/kg twice a day, Drug B 3 mg/kg once a day, oral, 10 weeks; for IP-10 Relative index: kidney mRNA relative to control group = 1.000; for IP-10 mRNA expression level (%): kidney, female NZB/WF1 mice, control = 100%, mean ± standard error of 10 to 11 mice
Method: as §1, §2, §3, §4, §5, §6

TNF-α mRNA in the kidney = experiment: TNF-α mRNA expression in the kidney of SLE model mice (Real-Time RT-PCR); type: in vivo, NZB/WF1 mice; details: Drug A 30 mg/kg twice a day, Drug B 3 mg/kg once a day, oral, 10 weeks; for TNF-α Relative index: kidney mRNA relative to control group = 1.000; for TNF-α mRNA expression level (%): kidney, female NZB/WF1 mice, control = 100%, mean ± standard error of 10 to 11 mice
Method: as §1, §2, §3, §4, §5, §6

[1] = system: SLE-associated genes in the kidney; experiment: Expression of SLE-associated genes in the kidney of SLE model mice, overall statement; type: in vivo; details: NZB/WF1 mice, oral, 10 weeks, Drug A 30 mg/kg twice a day, Drug B 3 mg/kg once a day, Dunnett's test vs control
Method: as §1, §2, §3, §4
as §5, with “portions.” for “portions. After that, the kidney was subjected to RNase inactivation treatment that involves immersing the kidney in RNAlater (manufactured by QIAGEN GmbH) at 4° C. for 24 hours.”

IL-1β mRNA in the kidney = experiment: IL-1β mRNA expression in the kidney of SLE model mice (Real-Time RT-PCR); type: in vivo, NZB/WF1 mice; details: Drug A 30 mg/kg twice a day, Drug B 3 mg/kg once a day, oral, 10 weeks; for IL-1β Relative index: kidney mRNA relative to control group = 1.000; for IL-1β mRNA expression level (%): kidney, female NZB/WF1 mice, control = 100%, mean ± standard error of 10 to 11 mice
Method: as §1, §2, §3, §4, §5, §6

IFIT1 mRNA in the kidney = experiment: IFIT1 mRNA expression in the kidney of SLE model mice (Real-Time RT-PCR); type: in vivo, NZB/WF1 mice; details: Drug A 30 mg/kg twice a day, Drug B 3 mg/kg once a day, oral, 10 weeks; for IFIT1 Relative index: kidney mRNA relative to control group = 1.000; for IFIT1 mRNA expression level (%): kidney, female NZB/WF1 mice, control = 100%, mean ± standard error of 10 to 11 mice
Method: as §1, §2, §3, §4, §5, §6

IFN-γ mRNA in the kidney = experiment: IFN-γ mRNA expression in the kidney of SLE model mice (Real-Time RT-PCR); type: in vivo, NZB/WF1 mice; details: Drug A 30 mg/kg twice a day, Drug B 3 mg/kg once a day, oral, 10 weeks; for IFN-γ Relative index: kidney mRNA relative to control group = 1.000; for IFN-γ mRNA expression level (%): kidney, female NZB/WF1 mice, control = 100%, mean ± standard error of 10 to 11 mice
Method: as §1, §2, §3, §4, §5, §6

Structure (SMILES)	BAFF Relative index (BAFF mRNA in the kidney)	BAFF mRNA expression level (%) (BAFF mRNA in the kidney)	IP-10 Relative index (IP-10 mRNA in the kidney)	IP-10 mRNA expression level (%) (IP-10 mRNA in the kidney)	TNF-α Relative index (TNF-α mRNA in the kidney)	TNF-α mRNA expression level (%) (TNF-α mRNA in the kidney)	action on the expression of SLE-associated genes in the kidney (in words) [1]	IL-1β Relative index (IL-1β mRNA in the kidney)	IL-1β mRNA expression level (%) (IL-1β mRNA in the kidney)	IFIT1 Relative index (IFIT1 mRNA in the kidney)	IFIT1 mRNA expression level (%) (IFIT1 mRNA in the kidney)	IFN-γ Relative index (IFN-γ mRNA in the kidney)	IFN-γ mRNA expression level (%) (IFN-γ mRNA in the kidney)	action on the expression of SLE-associated genes in the kidney (in words) ([1]; listed as 2-benzyl-5-(4-chlorophenyl)-6-[4-(methylthio)phenyl]-2H-pyridazine-3-one)
C[C@]12C=CC(=O)C=C1CC[C@@H]1[C@@H]2[C@@H](O)C[C@@]2(C)[C@H]1CC[C@]2(O)C(=O)CO [Drug B, prednisolone, reference compound]	0.722	72.2 ± 13.1%	0.635	63.5 ± 9.9%	0.522	52.2 ± 13.2%	exhibited a tendency to suppress the expression of any gene	0.661	66.1 ± 21.9%	0.786	78.6 ± 15.0%	0.360	36.0 ± 13.1%	–
CSc1ccc(-c2nn(Cc3ccccc3)c(=O)cc2-c2ccc(Cl)cc2)cc1 [Drug A, 2-benzyl-5-(4-chlorophenyl)-6-[4-(methylthio)phenyl]-2H-pyridazine-3-one]	1.135	113.5 ± 13.7%	0.883	88.3 ± 18.1%	0.634	63.4 ± 13.5%	exhibited no action on the expression of SLE-associated genes in the kidney of this model or exhibited only a tendency to slightly suppress the expression	1.266	126.6 ± 50.3%	0.721	72.1 ± 15.6%	0.857	85.7 ± 27.1%	there was not confirmed a significant action of suppressing the expression of SLE-associated genes in the kidney
